Results as given in PubChem BioAssay AID2060613 (Molecular Pharmacology Branch, DTP, NCI, 2025).

Tested on: 233499-124-R-J3-PDC complex spheroid viability
Assay: Anticancer human tumor 233499-124-R-J3-PDC patient-derived colon adenocarcinoma cell line growth inhibition [CLK]
Details: for IC50: curve of first compound; for viability, T/C: stronger effect = lower value; active means viability on the fitted dose curve at most 10% of control; inactive means the rest
Procedure, shortened: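 Multi-cell-type spheroids combined patient-derived tumor cells with HUVEC endothelial cells and human mesenchymal stem cells. Paired agents were dosed in half-log steps down from about clinical Cmax, or from 10 microM where Cmax was unknown.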
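Further: spheroids exposed to the drug combinations for seven days.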
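Wherever viability, T/C is given: percent viability relative to DMSO vehicle control wells taken as 100%.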

CC(C)CC(NC(=O)C(Cc1ccccc1)NC(=O)c1cnccn1)B(O)O (centres undefined) + CN1CCN(c2cc(C(=O)Nc3cc4cc(-c5cnn(C)c5)ccc4cn3)ccn2)CC1
5.27 nM: IC50 (second compound 0.316 µM)
5.53 nM: IC50 (second compound 0.0316 µM)
inactive: viability, T/C (second compound 0.0316 µM, first compound 0.000949 µM) 97.8% | viability, T/C (second compound 0.0316 µM, first compound 0.003 µM) 113% | viability, T/C (second compound 0.1 µM, first compound 0.000949 µM) 86.1% | viability, T/C (second compound 0.1 µM, first compound 0.003 µM) 93.5% | viability, T/C (second compound 0.316 µM, first compound 0.000949 µM) 96.5% | viability, T/C (second compound 0.316 µM, first compound 0.003 µM) 99%
5.01 nM: IC50 (second compound 0.1 µM)
active: viability, T/C (second compound 0.0316 µM, first compound 0.00949 µM) 0.79% | viability, T/C (second compound 0.0316 µM, first compound 0.03 µM) 0.19% | viability, T/C (second compound 0.0316 µM, first compound 0.0949 µM) 0.17% | viability, T/C (second compound 0.0316 µM, first compound 0.3 µM) 0.17% | viability, T/C (second compound 0.1 µM, first compound 0.00949 µM) 0.23% | viability, T/C (second compound 0.1 µM, first compound 0.03 µM) 0.2% | viability, T/C (second compound 0.1 µM, first compound 0.0949 µM) 0.18% | viability, T/C (second compound 0.1 µM, first compound 0.3 µM) 0.17% | viability, T/C (second compound 0.316 µM, first compound 0.00949 µM) 0.2% | viability, T/C (second compound 0.316 µM, first compound 0.03 µM) 0.17% | viability, T/C (second compound 0.316 µM, first compound 0.0949 µM) 0.18% | viability, T/C (second compound 0.316 µM, first compound 0.3 µM) 0.17% | viability, T/C (second compound 1 µM, first compound 0.000949 µM) 1.6% | viability, T/C (second compound 1 µM, first compound 0.003 µM) 0.82% | viability, T/C (second compound 1 µM, first compound 0.00949 µM) 0.17% | viability, T/C (second compound 1 µM, first compound 0.03 µM) 0.15% | viability, T/C (second compound 1 µM, first compound 0.0949 µM) 0.54% | viability, T/C (second compound 1 µM, first compound 0.3 µM) 0.13% | viability, T/C (second compound 3.16 µM, first compound 0.000949 µM) 0.76% | viability, T/C (second compound 3.16 µM, first compound 0.003 µM) 0.84% | viability, T/C (second compound 3.16 µM, first compound 0.00949 µM) 0.17% | viability, T/C (second compound 3.16 µM, first compound 0.03 µM) 0.18% | viability, T/C (second compound 3.16 µM, first compound 0.0949 µM) 0.19% | viability, T/C (second compound 3.16 µM, first compound 0.3 µM) 0.33% | viability, T/C (second compound 10 µM, first compound 0.000949 µM) 0.45% | viability, T/C (second compound 10 µM, first compound 0.003 µM) 0.34% | viability, T/C (second compound 10 µM, first compound 0.00949 µM) 0.24% | viability, T/C (second compound 10 µM, first compound 0.03 µM) 0.24% | viability, T/C (second compound 10 µM, first compound 0.0949 µM) 0.22% | viability, T/C (second compound 10 µM, first compound 0.3 µM) 0.19%
< 0.949 nM: IC50 (second compound 1 µM) | IC50 (second compound 3.16 µM) | IC50 (second compound 10 µM)

O=C(c1cc(Cc2n[nH]c(=O)c3ccccc23)ccc1F)N1CCN(C(=O)C2CC2)CC1 + CN1CCN(c2cc(C(=O)Nc3cc4cc(-c5cnn(C)c5)ccc4cn3)ccn2)CC1
inactive: viability, T/C (second compound 0.0316 µM, first compound 0.0316 µM) 79.9% | viability, T/C (second compound 0.0316 µM, first compound 0.1 µM) 98.1% | viability, T/C (second compound 0.0316 µM, first compound 0.316 µM) 96.8% | viability, T/C (second compound 0.0316 µM, first compound 1 µM) 108% | viability, T/C (second compound 0.0316 µM, first compound 3.16 µM) 99.4% | viability, T/C (second compound 0.0316 µM, first compound 10 µM) 93.2% | viability, T/C (second compound 0.1 µM, first compound 0.0316 µM) 98.6% | viability, T/C (second compound 0.1 µM, first compound 0.1 µM) 105% | viability, T/C (second compound 0.1 µM, first compound 0.316 µM) 103% | viability, T/C (second compound 0.1 µM, first compound 1 µM) 109% | viability, T/C (second compound 0.1 µM, first compound 3.16 µM) 110% | viability, T/C (second compound 0.1 µM, first compound 10 µM) 82.4% | viability, T/C (second compound 0.316 µM, first compound 0.0316 µM) 103% | viability, T/C (second compound 0.316 µM, first compound 0.1 µM) 99.4% | viability, T/C (second compound 0.316 µM, first compound 0.316 µM) 103% | viability, T/C (second compound 0.316 µM, first compound 1 µM) 93.8% | viability, T/C (second compound 0.316 µM, first compound 3.16 µM) 96.8% | viability, T/C (second compound 0.316 µM, first compound 10 µM) 87.1%
> 10000 nM: IC50 (second compound 0.0316 µM) | IC50 (second compound 0.1 µM) | IC50 (second compound 0.316 µM)
active: viability, T/C (second compound 1 µM, first compound 0.0316 µM) 3.57% | viability, T/C (second compound 1 µM, first compound 0.1 µM) 2.51% | viability, T/C (second compound 1 µM, first compound 0.316 µM) 2.71% | viability, T/C (second compound 1 µM, first compound 1 µM) 16.4% | viability, T/C (second compound 1 µM, first compound 3.16 µM) 3.61% | viability, T/C (second compound 1 µM, first compound 10 µM) 1.27% | viability, T/C (second compound 3.16 µM, first compound 0.0316 µM) 0.91% | viability, T/C (second compound 3.16 µM, first compound 0.1 µM) 0.94% | viability, T/C (second compound 3.16 µM, first compound 0.316 µM) 0.75% | viability, T/C (second compound 3.16 µM, first compound 1 µM) 0.71% | viability, T/C (second compound 3.16 µM, first compound 3.16 µM) 0.8% | viability, T/C (second compound 3.16 µM, first compound 10 µM) 1.09% | viability, T/C (second compound 10 µM, first compound 0.0316 µM) 0.64% | viability, T/C (second compound 10 µM, first compound 0.1 µM) 0.56% | viability, T/C (second compound 10 µM, first compound 0.316 µM) 0.6% | viability, T/C (second compound 10 µM, first compound 1 µM) 4.25% | viability, T/C (second compound 10 µM, first compound 3.16 µM) 0.89% | viability, T/C (second compound 10 µM, first compound 10 µM) 1.84%
< 31.6 nM: IC50 (second compound 1 µM) | IC50 (second compound 3.16 µM) | IC50 (second compound 10 µM)
